In ChEMBL document CHEMBL1155854, “Conformationally constrained farnesoid X receptor (FXR) agonists: Naphthoic acid-based analogs of GW 4064” (Bioorg Med Chem Lett, 2008):

How the values were obtained:
Bile acid receptor [1] = molecular target: T1, Bile acid receptor (Homo sapiens, UniProt Q96RI1); assay: Agonist activity at FXR expressed in african green monkey CV1 cells by luciferase reporter transient transfection assay; format: functional, cell-based, CV-1
T1 sequence (Q96RI1 whole entry): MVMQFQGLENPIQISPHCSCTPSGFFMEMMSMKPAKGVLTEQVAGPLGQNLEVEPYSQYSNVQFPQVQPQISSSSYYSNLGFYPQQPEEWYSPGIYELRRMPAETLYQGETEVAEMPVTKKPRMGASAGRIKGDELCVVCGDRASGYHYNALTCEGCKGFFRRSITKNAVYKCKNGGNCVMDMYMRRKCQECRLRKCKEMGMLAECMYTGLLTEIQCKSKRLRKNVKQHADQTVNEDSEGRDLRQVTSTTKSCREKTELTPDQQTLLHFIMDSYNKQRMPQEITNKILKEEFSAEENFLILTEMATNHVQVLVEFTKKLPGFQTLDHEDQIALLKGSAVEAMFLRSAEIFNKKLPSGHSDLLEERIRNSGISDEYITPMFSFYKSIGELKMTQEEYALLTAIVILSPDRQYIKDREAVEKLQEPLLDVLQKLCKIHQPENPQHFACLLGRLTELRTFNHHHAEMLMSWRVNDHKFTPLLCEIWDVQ

[2] = molecular target: T2, Bile acid receptor (Homo sapiens) (UniProt Q96RI1); assay: Agonist activity at FXR expressed in african green monkey CV1 cells by luciferase reporter transient transfection assay relative to GW-4064; format: functional, cell-based; conditions: CV-1
T2 sequence (whole entry): T1 sequence (Q96RI1 whole entry)

Bile acid receptor [3] = molecular target: T1, Bile acid receptor; assay: Agonist activity at FXR assessed as receptor-SRC-1 peptide interaction by FRET assay; format: functional
[4] = molecular target: T2, Bile acid receptor (Homo sapiens); assay: Agonist activity at FXR assessed as receptor-SRC-1 peptide interaction by FRET assay relative to GW-4064; format: functional

EC50 (Bile acid receptor [1]) [nM] | %max [2] [%] | EC50 (Bile acid receptor [3]) [nM] | %max [4] [%] | SMILES
500 | 90 | 420 | 69 | CC(C)c1onc(-c2c(Cl)cccc2Cl)c1COc1ccc(-c2ccc3ccc(C(=O)O)cc3c2)cc1
45 | 87 | 100 | 90 | CC(C)c1onc(-c2c(Cl)cccc2Cl)c1COc1ccc(-c2ccc3cc(C(=O)O)ccc3c2)cc1
3300 | 27 | 2300 | 52 | CC(C)c1onc(-c2c(Cl)cccc2Cl)c1COc1ccc(-c2ccc3cccc(C(=O)O)c3c2)cc1
